# “Also recorded” adds a separate entry of the source.
# Test system: Pseudomonas aeruginosa ATCC 15442
# Assay: Anti-Bacterial Test Method: log reduction of bacterial colonies after 3 days exposure in water
# Assay type: cell-based
# Experimental: Materials were dissolved in ethanol (or deionized water in the case of water soluble preservatives) to a concentration of 100 mg/ml. 30 μl of this solution added to 3 ml deionized water gave a final concentration of 0.1%. (If necessary, solutions are sonicated for 15 minutes and allowed to equilibrate back to ambient temperature.) Bacterial cultures were added to this solution, mixed on a vortex mixer and a dock started. After 3 days, an aliquot is sampled and added to a D/E (Dey/Engley) neutralization broth (marketed by Becton and Dickinson Cγ) and plated onto solid media. Bacterial colonies are counted after overnight incubation. The selected indicator microorganism was Pseudomonas aeruginosa ATCC 15442.
# All results are quoted as the reduction in activity expressed as a logarithm to the base 10 measured after 3 days incubation and compared with the inocculum unless otherwise noted.
# All percentages are quoted as weight per unit volume (e.g. g/ml) unless indicated otherwise.
structure (smiles),measurement,setting,value
OCc1ccccc1 [Benzyl alcohol],Log Reduction after 3 days,0.025% Benzyl alcohol alone,0.2 log
"Cl/C=C\C[N+]12CN3CN(CN(C3)C1)C2.[Cl-] [Dowicil 200, cis-1-3-chloroallyl-3,5,7-triaza-1-azoniaadamantane chloride]","log reduction, compared with the ethanol solvent control",0.05% Dowicil 200 alone,1.3 log
same,log reduction after 3 days vs Inocculum,0.05% Dowicil (line of Test Example 14 without fragrance),0.7 log
CCOC(=O)c1ccccc1C(=O)OCC [diethyl phthalate],effect of addition of diethyl phthalate on antibacterial / preservative efficacy,0.1% or 0.2% diethyl phthalate added to fragrance ingredient + preservative mixture,detrimental to antibacterial efficacy; also recorded: detrimental to preservative efficacy
"OCCOc1ccccc1 [phenoxyethanol, 2-Phenoxyethanol]","log reduction, compared with the ethanol solvent control, after 3 days",0.1% phenoxyethanol alone,0.4 log

# — US20080234173A1, “PRESERVATIVE COMPOSITIONS” (TAKASAGO INTERNATIONAL CORPORATION, priority 2007, published 2008)
